We go through one compound from article PMC5218480 (PLoS ONE, 2017).

The assay deals with MV-4-11 cells. Kind of assay: Gene expression microarray analysis (Affymetrix PrimeView) and GSEA. The assay is classed as cell-based, human. Details: RFU PODN (11730768_x_at) / Fold change /veh PODN (11730768_x_at) / RFU LINC00158 (11744669_a_at) / Fold change /veh LINC00158 (11744669_a_at) / RFU DUSP10 (11751237_a_at) / Fold change /veh DUSP10 (11751237_a_at) / RFU ID3 (11757404_x_at) / Fold change /veh ID3 (11757404_x_at) / RFU PLEKHG5 (11737974_s_at) / Fold change /veh PLEKHG5 (11737974_s_at) / RFU LRRC4B (11730491_at) / Fold change /veh LRRC4B (11730491_at) / RFU GIMAP4 (11747438_a_at) / Fold change /veh GIMAP4 (11747438_a_at) / RFU KRT8 (11758183_x_at) / Fold change /veh KRT8 (11758183_x_at) / RFU CNN1 (11734310_a_at) / Fold change /veh CNN1 (11734310_a_at) / RFU VPS37D (11726825_at) / Fold change /veh VPS37D (11726825_at) / RFU C10orf10 (11716522_x_at) / Fold change /veh C10orf10 (11716522_x_at) / RFU KIR2DL2 /// KIR2DL4 /// KIR2DL5A /// KIR2DL5B /// KIR2DS1 /// KIR2DS2 /// KIR2DS3 /// KIR2DS4 /// KIR3DL3 /// KIR3DL3 /// KIR3DS1 (11738374_at) / Fold change /veh KIR2DL2 /// KIR2DL4 /// KIR2DL5A /// KIR2DL5B /// KIR2DS1 /// KIR2DS2 /// KIR2DS3 /// KIR2DS4 /// KIR3DL3 /// KIR3DL3 /// KIR3DS1 (11738374_at) / RFU C1QL1 (11718748_at) / Fold change /veh C1QL1 (11718748_at) / RFU TMPRSS4 (11747572_a_at) / Fold change /veh TMPRSS4 (11747572_a_at) / RFU HAMP (11756126_x_at) / Fold change /veh HAMP (11756126_x_at) / RFU RNFT2 (11725882_a_at) / Fold change /veh RNFT2 (11725882_a_at) / RFU NR4A2 (11747474_a_at) / Fold change /veh NR4A2 (11747474_a_at) / RFU ABCC12 (11746883_a_at) / Fold change /veh ABCC12 (11746883_a_at) / RFU TMEM136 (11760407_x_at) / Fold change /veh TMEM136 (11760407_x_at) / RFU CLDN22 /// WWC2 (11732394_at) / Fold change /veh CLDN22 /// WWC2 (11732394_at) / RFU HLA-DPB1 (11760878_x_at) / Fold change /veh HLA-DPB1 (11760878_x_at) / RFU SPINT1 (11716480_a_at) / Fold change /veh SPINT1 (11716480_a_at) / RFU GAP43 (11754022_s_at) / Fold change /veh GAP43 (11754022_s_at) / RFU A4GNT (11735810_at) / Fold change /veh A4GNT (11735810_at) / RFU PRB3 (11715151_x_at) / Fold change /veh PRB3 (11715151_x_at) / RFU TUBB4B (11761932_at) / Fold change /veh TUBB4B (11761932_at) / RFU CAPN14 (11732068_a_at) / Fold change /veh CAPN14 (11732068_a_at) / RFU TMCC2 (11721928_a_at) / Fold change /veh TMCC2 (11721928_a_at) / RFU IRGQ (11745062_a_at) / Fold change /veh IRGQ (11745062_a_at) / RFU FAM174B (11720279_a_at) / Fold change /veh FAM174B (11720279_a_at) / RFU TMPRSS4 (11748680_a_at) / Fold change /veh TMPRSS4 (11748680_a_at) / RFU FAM212B (11763350_a_at) / Fold change /veh FAM212B (11763350_a_at) / RFU PLEKHG5 (11743358_a_at) / Fold change /veh PLEKHG5 (11743358_a_at) / RFU ZSCAN30 (11745921_a_at) / Fold change /veh ZSCAN30 (11745921_a_at) / RFU CMKLR1 (11741424_a_at) / Fold change /veh CMKLR1 (11741424_a_at) / RFU LOC101060620 /// MAPK8IP1 (11723275_at) / Fold change /veh LOC101060620 /// MAPK8IP1 (11723275_at) / RFU SPTSSB (11747773_x_at) / Fold change /veh SPTSSB (11747773_x_at) / RFU PRSS12 (11739890_at) / Fold change /veh PRSS12 (11739890_at) / RFU BIN1 (11741810_x_at) / Fold change /veh BIN1 (11741810_x_at) / RFU WNT11 (11732464_a_at) / Fold change /veh WNT11 (11732464_a_at) / RFU C10orf10 (11716521_a_at) / Fold change /veh C10orf10 (11716521_a_at) / RFU C5orf56 (11738089_at) / Fold change /veh C5orf56 (11738089_at) / RFU CYB561 (11721691_x_at) / Fold change /veh CYB561 (11721691_x_at) / RFU ANKRD19P (11752326_a_at) / Fold change /veh ANKRD19P (11752326_a_at) / RFU OR2T12 /// OR2T33 /// OR2T8 (11738714_s_at) / Fold change /veh OR2T12 /// OR2T33 /// OR2T8 (11738714_s_at) / RFU VCAN (11748164_a_at) / Fold change /veh VCAN (11748164_a_at) / RFU JSRP1 (11732532_at) / Fold change /veh JSRP1 (11732532_at) / RFU KRTAP10-11 (11738290_x_at) / Fold change /veh KRTAP10-11 (11738290_x_at) / RFU MYO3A (11730013_a_at) / Fold change /veh MYO3A (11730013_a_at) / RFU EBF3 (11725865_a_at) / Fold change /veh EBF3 (11725865_a_at) / RFU CAMK2N1 (11719241_x_at) / Fold change /veh CAMK2N1 (11719241_x_at) / RFU C5orf56 (11738088_a_at) / Fold change /veh C5orf56 (11738088_a_at) / RFU OLFML3 (11715873_a_at) / Fold change /veh OLFML3 (11715873_a_at) / RFU LOC100653217 /// NTM (11731650_a_at) / Fold change /veh LOC100653217 /// NTM (11731650_a_at) / RFU MAPK11 (11762145_a_at) / Fold change /veh MAPK11 (11762145_a_at) / RFU FIZ1 (11724087_x_at) / Fold change /veh FIZ1 (11724087_x_at) / RFU OASL (11726364_x_at) / Fold change /veh OASL (11726364_x_at) / RFU SOX15 (11748057_x_at) / Fold change /veh SOX15 (11748057_x_at) / RFU CD79A (11719716_a_at) / Fold change /veh CD79A (11719716_a_at) / RFU HIST1H1D (11736915_at) / Fold change /veh HIST1H1D (11736915_at) / RFU CASKIN2 (11723855_a_at) / Fold change /veh CASKIN2 (11723855_a_at) / RFU LOC730098 (11760151_x_at) / Fold change /veh LOC730098 (11760151_x_at) / RFU OR4N2 (11742367_at) / Fold change /veh OR4N2 (11742367_at) / RFU PRRT2 (11749266_a_at) / Fold change /veh PRRT2 (11749266_a_at) / RFU SNX32 (11753110_a_at) / Fold change /veh SNX32 (11753110_a_at) / RFU CDHR5 (11726645_a_at) / Fold change /veh CDHR5 (11726645_a_at) / RFU RCAN1 (11760418_a_at) / Fold change /veh RCAN1 (11760418_a_at) / RFU FAM167A (11723789_a_at) / Fold change /veh FAM167A (11723789_a_at) / RFU FAM26E (11764081_at) / Fold change /veh FAM26E (11764081_at) / RFU ISYNA1 (11749810_s_at) / Fold change /veh ISYNA1 (11749810_s_at) / RFU ACY1 (11761880_at) / Fold change /veh ACY1 (11761880_at) / RFU 11764098_at / Fold change /veh 11764098_at / RFU SAMD14 (11745864_x_at) / Fold change /veh SAMD14 (11745864_x_at) / RFU NPB (11741838_a_at) / Fold change /veh NPB (11741838_a_at) / RFU TMPRSS6 (11731388_a_at) / Fold change /veh TMPRSS6 (11731388_a_at) / RFU KRTAP10-2 (11738614_at) / Fold change /veh KRTAP10-2 (11738614_at) / RFU ARHGAP8 /// PRR5-ARHGAP8 (11727945_x_at) / Fold change /veh ARHGAP8 /// PRR5-ARHGAP8 (11727945_x_at) / RFU KRTAP5-7 /// NADSYN1 (11734609_at) / Fold change /veh KRTAP5-7 /// NADSYN1 (11734609_at) / RFU RASL12 (11751679_a_at) / Fold change /veh RASL12 (11751679_a_at) / RFU CDKN2B (11736163_a_at) / Fold change /veh CDKN2B (11736163_a_at) / RFU PRF1 (11729649_at) / Fold change /veh PRF1 (11729649_at) / RFU, ZNF638 /// ZNF638-IT1 / Fold change vs veh, ZNF638 /// ZNF638-IT1 / RFU, PANK3 / Fold change vs veh, PANK3 / RFU, SH3YL1 / Fold change vs veh, SH3YL1 / RFU, ZEB2 / Fold change vs veh, ZEB2 / RFU, NRIP1 / Fold change vs veh, NRIP1 / RFU, PTTG1IP / Fold change vs veh, PTTG1IP / RFU, CAPN2 / Fold change vs veh, CAPN2 / RFU, MED14 / Fold change vs veh, MED14 / RFU, SNORA58 / Fold change vs veh, SNORA58 / RFU, C1orf63 / Fold change vs veh, C1orf63 / RFU, LRRFIP1 / Fold change vs veh, LRRFIP1 / RFU, NDUFAF7 / Fold change vs veh, NDUFAF7 / RFU, SLC12A2 / Fold change vs veh, SLC12A2 / RFU, IBTK / Fold change vs veh, IBTK / RFU, ESF1 / Fold change vs veh, ESF1 / Fold change vs veh, TMEM50B / RFU, TAOK1 / Fold change vs veh, TAOK1 / RFU, ACBD3 / Fold change vs veh, ACBD3 / RFU, TMA16 / Fold change vs veh, TMA16 / RFU, RWDD3 / Fold change vs veh, RWDD3 / RFU, BCAT1 / Fold change vs veh, BCAT1 / RFU, EDEM3 / Fold change vs veh, EDEM3 / RFU, TMEM33 / Fold change vs veh, TMEM33 / RFU, WDR75 / Fold change vs veh, WDR75 / RFU, AHCTF1 / Fold change vs veh, AHCTF1 / RFU, TFRC / Fold change vs veh, TFRC / RFU, ZDHHC17 / Fold change vs veh, ZDHHC17 / RFU, NOM1 / Fold change vs veh, NOM1 / RFU, ARL8B / Fold change vs veh, ARL8B / RFU, ZBTB11 / Fold change vs veh, ZBTB11 / RFU, TAMM41 / Fold change vs veh, TAMM41 / RFU, KIAA1704 /// LOC100996395 / Fold change vs veh, KIAA1704 /// LOC100996395 / RFU, ING1 / Fold change vs veh, ING1 / RFU, TRMT61B / Fold change vs veh, TRMT61B / RFU, FUBP3 / Fold change vs veh, FUBP3 / RFU, TP53 / Fold change vs veh, TP53 / RFU, TNKS2 / Fold change vs veh, TNKS2 / RFU, ZFP14 / Fold change vs veh, ZFP14 / RFU, ACTR2 / Fold change vs veh, ACTR2 / RFU, PPP3R1 / Fold change vs veh, PPP3R1 / RFU, PIK3R1 / Fold change vs veh, PIK3R1 / RFU, HNRNPA1 / Fold change vs veh, HNRNPA1 / RFU, RNF170 / Fold change vs veh, RNF170 / RFU, ZNF28 / Fold change vs veh, ZNF28 / RFU, RNGTT / Fold change vs veh, RNGTT / RFU, OGT / Fold change vs veh, OGT / RFU, BRD1 / Fold change vs veh, BRD1 / RFU, MARS / Fold change vs veh, MARS / RFU, ZNF655 / Fold change vs veh, ZNF655 / RFU, FAHD1 / Fold change vs veh, FAHD1 / RFU, BDP1 / Fold change vs veh, BDP1 / RFU, LRRCC1 / Fold change vs veh, LRRCC1 / RFU, ARID1A / Fold change vs veh, ARID1A / RFU, ZNF146 / Fold change vs veh, ZNF146 / RFU, ZNF330 / Fold change vs veh, ZNF330 / RFU, GPN3 / Fold change vs veh, GPN3 / RFU, C9orf123 / Fold change vs veh, C9orf123 / RFU, N4BP2L2 / Fold change vs veh, N4BP2L2 / RFU, ARFIP1 / Fold change vs veh, ARFIP1 / RFU, FAM179B / Fold change vs veh, FAM179B / RFU, BCL10 / Fold change vs veh, BCL10 / RFU, UHRF1BP1L / Fold change vs veh, UHRF1BP1L / RFU, BET1 / Fold change vs veh, BET1 / RFU, CNOT2 / Fold change vs veh, CNOT2 / RFU, ZNF268 / Fold change vs veh, ZNF268 / Fold change vs veh, ZNF507 / RFU, DGCR2 / Fold change vs veh, DGCR2 / RFU, WDSUB1 / Fold change vs veh, WDSUB1 / Fold change vs veh, HSP90B1 /// MIR3652 / RFU, ADSS / Fold change vs veh, ADSS / RFU, GK / Fold change vs veh, GK / RFU, ZNF148 / Fold change vs veh, ZNF148 / RFU, TAF9 / Fold change vs veh, TAF9 / RFU, SLC1A5 / Fold change vs veh, SLC1A5 / RFU, SLMO2 / Fold change vs veh, SLMO2 / RFU, ABCC4 / Fold change vs veh, ABCC4 / RFU, LOC101060439 /// RAP1B / Fold change vs veh, LOC101060439 /// RAP1B / RFU, RFX7 / Fold change vs veh, RFX7 / RFU, GTPBP10 / Fold change vs veh, GTPBP10 / RFU, CNEP1R1 / Fold change vs veh, CNEP1R1 / RFU, BIVM-ERCC5 /// ERCC5 / Fold change vs veh, BIVM-ERCC5 /// ERCC5 / RFU, ILF3 / Fold change vs veh, ILF3 / RFU 11762660_at / Fold change /veh 11762660_at / RFU VCAN (11757783_s_at) / Fold change /veh VCAN (11757783_s_at) / RFU DDX43 (11728927_at) / Fold change /veh DDX43 (11728927_at) / RFU KRT8 (11758188_x_at) / Fold change /veh KRT8 (11758188_x_at) / RFU NKD1 (11759106_at) / Fold change /veh NKD1 (11759106_at) / RFU SRD5A1 (11742802_a_at) / Fold change /veh SRD5A1 (11742802_a_at) / RFU TPSAB1 /// TPSB2 (11721975_s_at) / Fold change /veh TPSAB1 /// TPSB2 (11721975_s_at) / RFU GSTM3 (11746129_a_at) / Fold change /veh GSTM3 (11746129_a_at) / RFU IL23R (11737362_x_at) / Fold change /veh IL23R (11737362_x_at) / RFU TMEM51 (11727254_a_at) / Fold change /veh TMEM51 (11727254_a_at) / RFU PIWIL2 (11732686_x_at) / Fold change /veh PIWIL2 (11732686_x_at) / RFU ORM1 (11744905_x_at) / Fold change /veh ORM1 (11744905_x_at) / RFU CCDC152 (11743942_at) / Fold change /veh CCDC152 (11743942_at) / RFU ECM1 (11717891_a_at) / Fold change /veh ECM1 (11717891_a_at) / RFU IL23R (11748794_a_at) / Fold change /veh IL23R (11748794_a_at) / RFU TNFAIP8L3 (11732012_x_at) / Fold change /veh TNFAIP8L3 (11732012_x_at) / RFU MBOAT4 (11741988_at) / Fold change /veh MBOAT4 (11741988_at) / RFU 11764193_at / Fold change /veh 11764193_at / RFU TMEM53 (11763286_at) / Fold change /veh TMEM53 (11763286_at) / RFU MAGEB2 (11727129_at) / Fold change /veh MAGEB2 (11727129_at) / RFU TMEM200A (11744735_a_at) / Fold change /veh TMEM200A (11744735_a_at) / RFU CCDC152 (11751479_a_at) / Fold change /veh CCDC152 (11751479_a_at) / RFU FAM211A (11726209_a_at) / Fold change /veh FAM211A (11726209_a_at) / RFU RGS16 (11746705_a_at) / Fold change /veh RGS16 (11746705_a_at) / RFU VCAN (11755009_s_at) / Fold change /veh VCAN (11755009_s_at) / RFU RHOB (11743442_s_at) / Fold change /veh RHOB (11743442_s_at) / RFU RGS16 (11720943_a_at) / Fold change /veh RGS16 (11720943_a_at) / RFU RGS16 (11720944_at) / Fold change /veh RGS16 (11720944_at) / RFU, VPS4B / Fold change vs veh, VPS4B / RFU, CREB1 / Fold change vs veh, CREB1 / RFU, DNAJC13 / Fold change vs veh, DNAJC13 / RFU, GNAQ / Fold change vs veh, GNAQ / RFU, CDK5R1 / Fold change vs veh, CDK5R1 / RFU, ZRANB3 / Fold change vs veh, ZRANB3 / RFU, CUL4A / Fold change vs veh, CUL4A / RFU, CCNY / Fold change vs veh, CCNY / RFU, UFL1 / Fold change vs veh, UFL1 / RFU, COG3 / Fold change vs veh, COG3 / RFU, DIAPH2 / Fold change vs veh, DIAPH2 / RFU, SKA2 / Fold change vs veh, SKA2 / RFU, AFF3 / Fold change vs veh, AFF3 / RFU, LMF1 / Fold change vs veh, LMF1 / RFU, IPO11 / Fold change vs veh, IPO11 / RFU, DFFB / Fold change vs veh, DFFB / RFU, FOXP1 / Fold change vs veh, FOXP1 / RFU, CARD8 / Fold change vs veh, CARD8 / RFU, STRN3 / Fold change vs veh, STRN3 / RFU, ADK / Fold change vs veh, ADK / RFU, RASSF2 / Fold change vs veh, RASSF2 / RFU, WIPF1 / Fold change vs veh, WIPF1 / RFU, LARP1B / Fold change vs veh, LARP1B / RFU, RASA1 / Fold change vs veh, RASA1 / RFU, RB1 / Fold change vs veh, RB1 / RFU, PPFIA1 / Fold change vs veh, PPFIA1 / RFU, MAT2A / Fold change vs veh, MAT2A / RFU, CCT5 / Fold change vs veh, CCT5 / RFU, WDR92 / Fold change vs veh, WDR92 / RFU, CUX1 / Fold change vs veh, CUX1 / RFU, TTC7A / Fold change vs veh, TTC7A / RFU, TMEM135 / Fold change vs veh, TMEM135 / RFU, DEPTOR / Fold change vs veh, DEPTOR / RFU, CPM / Fold change vs veh, CPM / RFU, DNAJB6 / Fold change vs veh, DNAJB6 / RFU, CACNA2D3 / Fold change vs veh, CACNA2D3 / RFU, DTX4 / Fold change vs veh, DTX4 / RFU, TFCP2 / Fold change vs veh, TFCP2 / RFU, GMCL1 /// GMCL1P1 / Fold change vs veh, GMCL1 /// GMCL1P1 / RFU, AEBP2 / Fold change vs veh, AEBP2 / RFU, SNHG1 /// SNORD22 /// SNORD25 /// SNORD26 /// SNORD27 /// SNORD28 /// SNORD29 /// SNORD31 / Fold change vs veh, SNHG1 /// SNORD22 /// SNORD25 /// SNORD26 /// SNORD27 /// SNORD28 /// SNORD29 /// SNORD31 / Fold change (Aza/veh), C12orf56 (ProbeSet 11735607_a_at) / Fold change (ACY-1035/veh), C12orf56 (ProbeSet 11735607_a_at) / Fold change (Aza/veh), FGFR1OP (ProbeSet 11751329_s_at) / Fold change (ACY-1035/veh), FGFR1OP (ProbeSet 11751329_s_at) / Fold change (Aza/veh), VPS36 (ProbeSet 11739960_a_at) / Fold change (ACY-1035/veh), VPS36 (ProbeSet 11739960_a_at) / RFU SYPL1 (11715823_x_at) / Fold change /veh SYPL1 (11715823_x_at) / RFU IGFBP7 (11715501_s_at) / Fold change /veh IGFBP7 (11715501_s_at) / RFU REEP3 (11722064_at) / Fold change /veh REEP3 (11722064_at) / RFU IGLL1 (11728026_x_at) / Fold change /veh IGLL1 (11728026_x_at): dose or concentration left out as unconfirmed. To be noted: ProbeSet 11758919_x_at; LIST D.

SMILES strings stand for the structures.

With `Nc1ncn([C@@H]2O[C@H](CO)[C@@H](O)[C@H]2O)c(=O)n1` [azacitidine], the “Fold change vs veh, TFCP2” value turned out to be 0.71.
